Experimental data from patent publication US20220033448A1, “METHODS FOR AGGREGATION OF PROTEINS” (priority 2011, published 2022).
Where two headings read alike, the source gives them in different places. No end group written: not given here.

Assays:
[1] = Preliminary in vivo toxicity in mice; details: Swiss mice
Method: Further, three groups of 6-weeks old female Swiss mice were injected with increasing C30 doses over a period of 1 week. C30 was dissolved in physiological water and 1 injection per day was given. In the first 3 days injections in the tail vein were given (150 μl per injection) and during the remaining 2 days IP injections (300 μl per injection). The primary dose started from 3 mg/kg and each day the dose was increased gradually. The control group received the same volume of saline. The highest dose analyzed for IV injections was 50 mg/kg and for the IP injections 100 mg/kg. […] Organs of treated and control mice were subjected to further histological analysis. After all 5 injections were given, blood was taken by retro-orbital puncture and analyzed.

S. aureus MRSA 326 = assay: Neutropenic-mouse thigh model; details: neutropenic mice; bolus i.v. dose of 15 mg/kg 2 h after inoculation; sacrificed 4 hours post-infection
bacterial cells = assay: Membrane potential (BacLight kit, DiOC2 red/green fluorescence); assay type: cell-based; details: 25 μg/ml; after 5 minutes
S. capitis = assay: MIC, microbroth dilution; details: planktonic, 18 hours
Method: (§1) Bacteria were grown in a shaking incubator at 37° C. and 160rpm in 50 ml BHI , using individual colonies retrieved from a fresh overnight TSA-sheep blood plate. The cultures were grown to a density of approximately 1×10^8cells/ml and then diluted to 5×10^5 cells/ml in CAMHB (Mc Farland 0.5). Each well contained 100p.I (50p.I of peptide containing MHB plus 50 μl inoculum). The final cell density was 1×10^5 to 5×10^5/ml. After addition of the cell suspension, plates were incubated at 37° C. for 18 to 24 hours. The optical density at 590 nm (OD590) of each well was measured after 5 seconds of shaking the plate using Perkin Elmer spectrophotometer (1420 Multilabel Counter Vicotr 3). […] Each well, where no growth was observed, was also plated on TSA-sheep blood agar plates, incubated at 37° C. overnight and visually inspected.

Bacillus subtilis = assay: MIC, microbroth dilution; details: planktonic, 18 hours
Method: as §1

B. cereus = details: planktonic, 18 hours
Method: as §1
A microbroth dilution method was used with twofold serial dilutions in CAMHB (according to EMEA guidelines) was used for screening of peptide activity, with concentrations ranging from 0.3 μg/mIto 200 μg/ml.

Ps. aeruginosa ATCC27853 = assay: MIC, microbroth dilution; details: planktonic, 18 hours
Method: as §1

[2] = tested on: human embryonic kidney cells (HEK293T cell line); details: concentrations lower than 100 μg/ml; HEK293T
From the text: Alamar blue assay allowed monitoring of the total percentage of cell growth recovery in time in the presence of peptides.

[3] = tested on: Candida glabrata ATCC2001; assay: C. glabrata adhesion and biofilm formation on 96-well polystyrene plates (XTT); assay type: cell-based; details: 96-well polystyrene plates in vitro
From the text: The specificity of interferor peptide F9 was investigated for C. albicans as compared to a distant Candida spp., i.e. Candida glabrata ATCC2001, for biofilm formation inhibition in vitro. The beta-aggregation sequence of the F9 peptide ([…] (SEQ ID NO: 71)) is not present in C. glabrata—the most closely related sequence in C. glabrata is […] (SEQ ID NO: 73). […] We tested the effect of F9 against C. glabrata adhesion and biofilm formation on 96-well polystyrene plates in vitro.

Candida albicans SC5314 = assay: Invasion of C. albicans SC5314 into epithelial cell line TR-146; assay type: cell-based; details: invasion 3 h
Method: As discussed herein before, C. albicans Als3 also plays a role in adherence and invasion to epithelial and endothelial cells. […] Here we investigated the effect of external application of interferor peptide F9 on C. albicans SC5314 adherence and invasion to epithelial cells. Thereto, Candida cells were incubated together with the human cells (epithelial cell line TR-146) in the presence of peptide F9 during adhesion (1 h) or invasion (3 h). The amount of adhered and internalized cells was determined by counting using epifluorescence.
The monolayers of TR-146 cell lines were infected with Candida cells as previously described in 6.2.15. After 3 h incubation period of monolayers with Candida cells at 37° C., 5% CO2, the medium above the epithelial cells was aspirated and the monolayers were rinsed three times with 1× PBS to remove fungal cells which were not associated with epithelial cells. Next, the epithelial cells were fixed with 4% Histofix (Roth) for 20 min at 37° C. All fungal cells remaining adherent to the surface were stained for 1 h with a rabbit anti-C. albicans polyclonal antibody (Acris Antibodies, Germany) (dilution 1:2000) and counterstained with a secondary anti-rabbit IgG conjugated with Alexa Fluor 488 (Invitrogen) (dilution 1:5000). After extensive rinsing with 1× PBS, the cells were permeabilized in 0.5% Triton X-100 in water for 5 min. Further, adherent and invading parts of fungal cells within epithelial cells were stained with calcofluor white (dilution 1:100) for 15 min and washed three times with water, for 10 min at 30° C., 180 rpm. Coverslips were mounted inverted onto glass slides and the stained cells were visualized with epifluorescence using a filter set to detect calcofluor white (filter for DAPI) and Alexa Fluor 488 (Leica DFC350 FX, Mannheim, Germany). The percentage of invading C. albicans cells was determined by dividing the number of internalized cells by the total number of adherent cells. At least 100 fungal cells were counted on each coverslip.

RILLGLIRRGSRILLGLIRR [C30]
side effects ([1]; IP injection, highest dose of 100 mg/kg): developed a subcutaneous lesion bump
mortality and side effects ([1]; IV injections, increasing doses from 3 mg/kg, highest dose 50 mg/kg): no signs of mortality nor any other visible side effects
blood analysis ([1]; after all 5 injections, retro-orbital puncture): No abnormalities were found in the blood
MIC (S. aureus): 6 µg/mL
MIC in presence of 50% FBS (S. aureus): 50 µg/mL
MIC (S. aureus; MRSA 115, planktonic, 18 hours): MRSA 115: 6 μg/ml
MIC (S. aureus; MRSA 165, planktonic, 18 hours): MRSA 165: 3 μg/ml
MIC (S. aureus; MRSA 204, planktonic, 18 hours): MRSA 204: 6 μg/ml
MIC (S. aureus; MRSA 274, planktonic, 18 hours): MRSA 274: 3 μg/ml
MIC (S. aureus; MRSA 351, planktonic, 18 hours): MRSA 351: 3 μg/ml
MIC (S. aureus; MRSA 418, planktonic, 18 hours): MRSA 418: 6 μg/ml
MIC (S. aureus; MRSA 651, planktonic, 18 hours): MRSA 651: 3 μg/ml
MIC (S. aureus; S. aureus ATCC29213, planktonic, 18 hours): S. aureus ATCC29213: 3 μg/ml
reduction of expansion of initial inoculum (S. aureus MRSA 326): 6.9 Log10 CFU/ml
membrane potential (MP) change (bacterial cells): full depolarization of the MP
MIC (S. capitis): S. capitis: 1.5 μg/ml
MIC (Bacillus subtilis; Bacillus subtilis ATCC 6051): Bacillus subtilis ATCC 6051: 1.5 μg/ml
MIC (Bacillus subtilis; Bacillus subtilis IP 5832): Bacillus subtilis IP 5832: 6 μg/ml
MIC (B. cereus; Bacillus cereus 1): Bacillus cereus 1: 6 μg/ml
MIC (B. cereus; Bacillus cereus 2): Bacillus cereus 2: 6 μg/ml
MIC (Ps. aeruginosa ATCC27853): Ps. aeruginosa ATCC27853: >100 μg/ml
viability of mammalian cells [2]: viability of mammalian cells is not significantly affected

RKLLFNLGSRNGIVIVATTR [F9]
C. glabrata adhesion and biofilm development [3]: did not interfere with C. glabrata adhesion and biofilm development
effect on invasion of epithelial cells (Candida albicans SC5314; 2.5 μM): did not have any effect on invasion
decrease of invasion of epithelial cells (Candida albicans SC5314; 10 μM): 15%
decrease of invasion of epithelial cells (Candida albicans SC5314; 50 μM): 34%
